# In patent US20160115196A1, “SELF-ASSEMBLED MICRO-AND NANOSTRUCTURES” (NORTHWESTERN UNIVERSITY, priority 2013, published 2016):
# Where no end group is shown, it is not given here. [ ]: non-standard residue; d: D form. Dopa = N[C@@H](Cc1ccc(O)c(O)c1)C(=O)O
# Assays:
# [1] = Silver reduction / silver deposition assay; conditions: silver nitrate added to pre-formed assemblies; TEM, HR-SEM or E-SEM
# Procedure: Silver reduction assay was performed with pre-prepared Fmoc-DOPA-DOPA hydrogels at a concentration of 5 mg/mL (8.35 mM). 50 μL of 13.2 mM silver nitrate were added to 500 μL hydrogel aliquots by gentle pipetting, resulting in 1.2 mM final concentration of silver nitrate. This solution was incubated at room temperature for several days. At different time points, 10 μL aliquots were taken for TEM analysis and negative staining was not applied. To examine silver reduction using UV-vis spectroscopy, silver nitrate was added to a 5 mg/mL hydrogel pre-prepared as described above and 150 μL aliquots of Fmoc-DOPA-DOPA hydrogel with or without silver nitrate were pipetted into a 96-well UV-Star UV transparent plate (Greiner BioOne, Frickenhausen, Germany) Spectra were collected after 5 days using a Biotek Synergy HT plate reader over the range of 300-700 nm and compared to blank samples of silver nitrate only, or of the peptide only.
# Peptide stock solution was diluted to a final concentration of 5 mg/ml in double distilled water. Then metal salt (AgNO3) was added to the sample and the samples were analyzed by TEM or HR-SEM. AgNO3 concentration was determined according to the final catechol concentration in the peptide, with a constant ratio of [AgNO3]/[Catechol]=0.0723.
# Silver deposition was done by preparing 15 mM peptide solutions and removing residual peptide monomers. This was done by centrifugation at 12,000 RPM for 15 min, discarding the supernatant and resuspention in ultra-pure water. This procedure was repeated once more. Samples for electron microscopy were taken as control and the solution was centrifuged at 12,000 RPM for 15 min and resuspended in an aqueous solution of 2.17 mM AgNO3 for 15 min Finally, the solution was centrifuged at 9000 RPM for 10 min and resuspended in water. Samples for electron microscopy were taken again.
# [2] = Thermal perturbation of assemblies (temperature-dependent CD, FTIR, TEM); type: physicochemical; conditions: 0.15 mM in water, stepwise 18° C. to 90° C. and back
# Procedure: CD spectra were collected as described above except that the spectra were obtained throughout temperature variation done in a stepwise fashion up and then down. […] (in the following steps: 25° C., 37° C., 50° C., 70° C., 90° C., 70° C., 50° C., 37° C., 25° C.). The sample was allowed to equilibrate for 10 min and the temperature was monitored by a thermocouple in the cuvette holder block. At the end of the measurments, the cuvette content was sampled for TEM and FTIR analysis as described above. As control, TEM and FTIR samples were taken from an aliquot of the same solution which was not subjected to temperature variations.
# [3] = AFM force mapping adhesion measurements with colloidal probe (Embodiment 2); type: physicochemical; conditions: for mean adhesion force from force map histogram: tip velocity 1000 nm/s, compressive force 20 nN
# Procedure: In an alternative embodiment, AFM analysis was performed using an Asylum MFP-1D AFM instrument (Asylum Research, Santa Barbara, Calif., USA).
# The AFM measurment was performed by emploting force mapping while simultaneously providing nanoscale topographical and mechanical information about the hydrogel. Force mapping involves generating individual force curves at discrete points on a material, which are then used to calculate stiffness and height values.
# (§1) After overnight incubation, 10 μL of each sample were deposited on a glass slide and dried at room temperature. Force measurements of the samples were conducted using a SiO2 colloidal probe (tip velocity 1000 nm/s, compressive force 20 nN). To investigate the glass surface area morphology after peeling, 30 μL of freshly prepared Fmoc-DOPA-DOPA-Lys solutions (12.5 mg/mL, prepared in DMSO or ethanol as described above) were deposited between two microscope glass slides. This construct was incubated overnight at room temperature under 100 mg weight Finally, the upper glass slide was peeled off and the contact area of either slide was imaged using an Ultrasharp AFM probe (NSC21/Ti-Pt, MikroMasch) operated in tapping mode.
# [4] = Macroscopic adhesion of two glass slides and peeling; type: physicochemical; conditions: prepared in ethanol or DMSO
# Procedure: as §1
# [5] = Rheological measurements of in situ-formed hydrogel; type: physicochemical; conditions: 5 mg/mL
# Procedure: Rheological measurements for in situ-formed Fmoc-DOPA-DOPA hydrogel were performed using an AR-G2 rheometer (TA Instruments, New Castle, Del., USA). Time-sweep oscillatory tests in 20 mm parallel plate geometry were conducted at 0.7% strain and 1 Hz frequency on 200 μL of fresh solution (resulting in a gap size of about 0.6 mm), 1 min after its preparation. In order to determine the linear viscoelastic region oscillatory strain (0.01-100%) and frequency sweep (0.01-100 Hz) tests were conducted 45 min after diluting the stock solution with Milli-Q water. All rheology tests were done in triplicates and averaged.
compound,measurement,setting,value
D[Dopa]NK[Dopa],reduction of ionic silver / silver deposition on assemblies,[1],possess the ability to reduce ionic silver
same,stability of the ultrastructure to elevated temperature,[2],ultrastructure is impaired by elevated temperatures
O=C(N[C@@H](Cc1ccc(O)c(O)c1)C(=O)O)OCC1c2ccccc2-c2ccccc21 [Fmoc-DOPA],mean adhesion force from force map histogram,"[3]; 1 mg/ml in 1% ethanol, one day of assembly",31±10.6 nN
Fmoc-DOPA-DOPA-Lys,adhesion force (force map),[3]; 1.25 wt% (12.5 mg/mL) prepared in 12.5% DMSO and water,> 300 nN
same,adhesion force (force map),[3]; 1.25 wt% (12.5 mg/mL) prepared in 12.5% ethanol and water,more than 214 nN
same,macroscopic adhesive properties,[4],capable of gluing together two glass slides
"3,4-dihydroxyphenyl-L-alanine-(3,4-dihydroxyphenyl-L-alanine) [DOPA-DOPA]",reduction of ionic silver / silver deposition on assemblies,[1],formation of silver particles
Fmoc-DOPA-DOPA,reduction of ionic silver / silver deposition on assemblies,[1],seamless coating of the peptide assemblies was clearly observed
same,mean adhesion force from force map histogram,[3]; 5 mg/ml in 5% ethanol,36±11 nN
same,storage modulus at 25° C. or 37° C. relative to hydrogels formed at 4° C.,[5],approximately 40 fold
same,storage modulus (G′) versus loss modulus (G″) in the linear region,[5]; 25° C.,more than one order of magnitude larger than the loss modulus
